Where “and” joins values, the source holds several entries; their conditions need not be identical. Identical values can stand only once. Like-named read-outs stand apart in the source and are kept apart here.
How the values were obtained:
Type in all cases: cell-based, human
[1] = system: PBMCs from LTBI donors (IFN-γ production)
[2] = system: PBMCs depleted of CD4+ or CD8+ T cells
[3] = system: CD4-purified cells from LTBI donors; conditions: range over donors analyzed
[4] = individual MTB epitope peptide, one value per responding LTBI donor
[5] = phenotype of the responding T cells per donor, n.d. = assay not done

Sequence | SFC [1, 4] | T cell phenotype [2, 5] | further results
GWIISNIFGAIPVLG | 195.0 and 41.7 and 58.3 and 26.7 | CD4 and undetectable (3×) | –
DPMVQIPRLVANNTR | 60.0 | undetectable | –
AAIHEMFVNTLVASS | 41.7 and 160.0 and 26.7 and 61.7 | CD8 and undetectable (2×) | –
ILPIAEMSVVAMEFG | 111.7 and 26.7 and 33.3 | CD4 and undetectable (2×) | –
ELFVAAYVPYVAWLV | 25.0 and 20.0 and 30.0 and 21.7 and 28.3 | undetectable | –
AEAPAAAAAPEEQVQ | 20.0 | CD4 | –
GTVVLTATFALGAAL | 33.3 and 128.3 and 71.7 and 30.0 | CD4 (2×) and undetectable (2×) | –
LALVGFLGGLITGIS | 65.0 (2×) and 36.7 and 25.0 | CD4 and undetectable (3×) | –
ALSRVHSMFLGTGGS | 71.7 and 43.3 | CD4 | –
AQLSQLISLLPSTLQ | 50.0 and 51.7 and 23.3 | undetectable | –
FFGQNTAAIAATEAQ | 193.3 and 165.0 | CD4 | –
YVAWMSATAALAREA | 150.0 and 83.3 and 58.3 and 25.0 | CD4 (3×) and undetectable | –
ALQSHDDVALVSVMW | 28.3 and 61.7 | CD4 and undetectable | –
AALPLLFFALAGQRI | 81.7 and 36.7 and 33.3 and 143.3 and 45.0 | CD4 (3×) and undetectable (2×) | –
SARLRLLRDRLVEGV | 138.3 and 23.3 | CD4 and undetectable | –
QVPSASMGRDIKVQF | 53.3 and 48.3 | undetectable | –
WFINWYLPISQLFYN | 40.0 | undetectable | –
LLEFAVVLELAILSI | 26.7 | undetectable | –
FGQNTGAIAAAEARY | 108.3 and 276.7 | CD4 | –
AAASWDALAAELASA | 217.5 and 130.0 and 440.8 | CD4 | –
GINTIPIAINEAEYV | 120.0 and 201.7 and 20.0 and 118.3 | CD4 (2×) and undetectable | –
DYVRMWVQAATVMSA | 343.3 and 38.3 and 31.7 and 81.7 and 28.3 | CD4 (3×) and CD4/CD8 and undetectable | –
AGCQTYKWETFLTSE | – | – | SFC [1]: 60.0 and 55.8 and 36.7 and 51.7; T cell phenotype [2]: CD4 and undetectable

Sequence | SFC [1, 4] | T cell phenotype [2, 5] | further results
AWMSAAAAQAEQAAT | 25.0 | undetectable | –
AQNGVQAMSSLGSSL | 46.7 | CD4 | –
APQINFFYYLGEPIV | 20.0 | undetectable | –
AQIYQAVSAQAAAIH | 225.0 and 86.7 | CD4 | –
ALSAEYAAVAQELSV | 31.7 and 46.7 | CD4 | –
MSFVTTQPEALAAAA | 121.7 | CD4 | –
AATQARAAAAAFEAA | 25.0 | undetectable | –
YASVEAANASPLQVA | 35.0 | undetectable | –
IQARAAALAFEQAYA | 23.3 and 33.3 | CD4 and undetectable | –
GWSSLGREYAAVAEE | 185.0 | CD4 | –
LAWLVQASANSAAMA | 25.0 | undetectable | –
FGQNTSAIAAAEAQY | 161.7 and 176.7 | CD4 | –
MHVSFVMAYPEMLAA | 165.0 and 290.0 and 181.7 and 283.3 | CD4 | –
SSYAATEVANAAAAS | 60.0 | CD4 | –
FGQNTASIAATEAQY | 110.0 and 26.7 | CD4 | –
AYGSFVRTVSLPVGA | 271.7 and 45.0 | CD4 | –
ADYLRMWIQAATVMS | 375.0 and 35.0 and 128.3 and 48.3 and 26.7 and 75.0 | CD4 (5×) and undetectable | –
PSPSMGRDIKVQFQS | 45.0 and 46.7 | undetectable | –
EIVQFLEETFAAYDQ | 103.3 and 105.0 and 25.0 and 80.0 | CD4 (3×) and undetectable | –
AAIHEMFVNTLQMSS | 25.0 and 165.0 | CD8 | –
MSQIMYNYPAMMAHA (listed as Mycobacterium tuberculosis) [Rv0288/Rv3019c] | – | – | effector memory T cells among tetramer+ cells [3]: 4.8-17.2%; naïve (CCR7+CD45RA+) among tetramer+ cells [3]: 9.8-37.1%
RGKVVLIDFWAYPCI | 35.0 | undetectable | –
